Experimental data from the supplement of paper PMC13207355.

How the values were obtained:
Conditions in all cases: exposure time: 72 h
E57 [1] = patient-derived glioblastoma stem cells of mesenchymal subtype; assay: surviving fraction (nuclei count normalised to DMSO); higher = more cells surviving (less toxic)
E21 [2] = patient-derived glioblastoma stem cells of mesenchymal subtype; assay: as above
FT3469 [3] = normal neural stem cell line; assay: as above
E13 [4] = patient-derived glioblastoma stem cells of classical subtype; assay: as above
E34 [5] = patient-derived glioblastoma stem cells of proneural subtype; assay: as above
E28 [6] = patient-derived glioblastoma stem cells of classical subtype; assay: as above
E31 [7] = patient-derived glioblastoma stem cells of proneural subtype; assay: as above
E57 [8] = assay: phenotypic distance (Euclidean, principal components) from DMSO controls (arbitrary units); higher = stronger morphological change
E21 [9] = assay: as above
FT3469 [10] = assay: as above
E13 [11] = assay: as above
E34 [12] = assay: as above
E28 [13] = assay: as above
E31 [14] = assay: as above
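Wherever phenotypic distance (Euclidean, principal components) from DMSO controls is given: cell Painting imaging in 384-well plates, CellProfiler features reduced to at least 20 principal components, Euclidean distance versus same-plate DMSO vehicle wells (0.1% v/v), median over six images per well.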
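Wherever surviving fraction (nuclei count normalised to DMSO) is given: nuclei counted by high-content imaging of Hoechst-stained cells in laminin-coated 384-well plates, relative to 0.1% DMSO vehicle wells, with staurosporine as cell-death control.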

COC(=O)C[C@](O)(CCCC(C)(C)O)C(=O)O[C@@H]1C(OC)=C[C@]23CCCN2CCc2cc4c(cc2[C@H]13)OCO4 [Homoharringtonine]
Conditions | phenotypic distance | surviving fraction
E13 [4], 4.1 nM | – | 0.73
E13 [4], 12.3 nM | – | 0.702
E13 [4], 37 nM | – | 0.367
E13 [4], 111.1 nM | – | 0.401
E13 [4], 333.3 nM | – | 0.316
E13 [4], 1000 nM | – | 0.239
E13 [4], 3000 nM | – | 0.0816
E13 [11], 4.1 nM | 1.66 | –
E13 [11], 12.3 nM | 2.13 | –
E13 [11], 37 nM | 4.35 | –
E13 [11], 111.1 nM | 3.97 | –
E13 [11], 333.3 nM | 5.67 | –
E13 [11], 1000 nM | 7.51 | –
E13 [11], 3000 nM | 8.63 | –
E21 [2], 4.1 nM | – | 0.726
E21 [2], 12.3 nM | – | 0.721
E21 [2], 37 nM | – | 0.289
E21 [2], 111.1 nM | – | 0.402
E21 [2], 333.3 nM | – | 0.186
E21 [2], 1000 nM | – | 0.179
E21 [2], 3000 nM | – | 0.0999
E21 [9], 4.1 nM | 1.39 | –
E21 [9], 12.3 nM | 1.73 | –
E21 [9], 37 nM | 4.36 | –
E21 [9], 111.1 nM | 3.63 | –
E21 [9], 333.3 nM | 4.11 | –
E21 [9], 1000 nM | 5.37 | –
E21 [9], 3000 nM | 8.36 | –
E28 [6], 4.1 nM | – | 0.694
E28 [6], 12.3 nM | – | 0.573
E28 [6], 37 nM | – | 0.334
E28 [6], 111.1 nM | – | 0.41
E28 [6], 333.3 nM | – | 0.336
E28 [6], 1000 nM | – | 0.343
E28 [6], 3000 nM | – | 0.282
E28 [13], 4.1 nM | 1.42 | –
E28 [13], 12.3 nM | 1.38 | –
E28 [13], 37 nM | 2.63 | –
E28 [13], 111.1 nM | 1.37 | –
E28 [13], 333.3 nM | 2.87 | –
E28 [13], 1000 nM | 3.53 | –
E28 [13], 3000 nM | 4.17 | –
E31 [7], 4.1 nM | – | 0.502
E31 [7], 12.3 nM | – | 0.372
E31 [7], 37 nM | – | 0.226
E31 [7], 111.1 nM | – | 0.218
E31 [7], 333.3 nM | – | 0.209
E31 [7], 1000 nM | – | 0.164
E31 [7], 3000 nM | – | 0.171
E31 [14], 4.1 nM | 1.9 | –
E31 [14], 12.3 nM | 2.41 | –
E31 [14], 37 nM | 3.5 | –
E31 [14], 111.1 nM | 4.14 | –
E31 [14], 333.3 nM | 4.68 | –
E31 [14], 1000 nM | 5.99 | –
E31 [14], 3000 nM | 5.88 | –
E34 [5], 4.1 nM | – | 0.844
E34 [5], 12.3 nM | – | 0.873
E34 [5], 37 nM | – | 0.505
E34 [5], 111.1 nM | – | 0.553
E34 [5], 333.3 nM | – | 0.434
E34 [5], 1000 nM | – | 0.412
E34 [5], 3000 nM | – | 0.337
E34 [12], 4.1 nM | 1.44 | –
E34 [12], 12.3 nM | 1.62 | –
E34 [12], 37 nM | 2.68 | –
E34 [12], 111.1 nM | 3.86 | –
E34 [12], 333.3 nM | 3.89 | –
E34 [12], 1000 nM | 4.65 | –
E34 [12], 3000 nM | 6.65 | –
E57 [1], 4.1 nM | – | 0.931
E57 [1], 12.3 nM | – | 0.677
E57 [1], 37 nM | – | 0.207
E57 [1], 111.1 nM | – | 0.215
E57 [1], 333.3 nM | – | 0.102
E57 [1], 1000 nM | – | 0.0784
E57 [1], 3000 nM | – | 0.0251
E57 [8], 4.1 nM | 1.28 | –
E57 [8], 12.3 nM | 2.53 | –
E57 [8], 37 nM | 4.58 | –
E57 [8], 111.1 nM | 4.46 | –
E57 [8], 333.3 nM | 6.69 | –
E57 [8], 1000 nM | 8.52 | –
E57 [8], 3000 nM | 8.81 | –
FT3469 [3], 4.1 nM | – | 0.701
FT3469 [3], 12.3 nM | – | 0.669
FT3469 [3], 37 nM | – | 0.604
FT3469 [3], 111.1 nM | – | 0.589
FT3469 [3], 333.3 nM | – | 0.536
FT3469 [3], 1000 nM | – | 0.53
FT3469 [3], 3000 nM | – | 0.436
FT3469 [10], 4.1 nM | 1.22 | –
FT3469 [10], 12.3 nM | 1.49 | –
FT3469 [10], 37 nM | 1.36 | –
FT3469 [10], 111.1 nM | 2 | –
FT3469 [10], 333.3 nM | 1.75 | –
FT3469 [10], 1000 nM | 2.95 | –
FT3469 [10], 3000 nM | 3.51 | –

O=[N+]([O-])c1ccc2c(c1)S(=O)(=O)C=C2 [Stattic]
Conditions | phenotypic distance | surviving fraction
E13 [4], 4.11523 nM | – | 0.862
E13 [4], 12.34567901 nM | – | 0.789
E13 [4], 37.037 nM | – | 0.891
E13 [4], 111.1111111 nM | – | 0.753
E13 [4], 333.333 nM | – | 0.472
E13 [4], 1000 nM | – | 0.0609
E13 [4], 3000 nM | – | 0.0209
E13 [11], 4.11523 nM | 0.979 | –
E13 [11], 12.34567901 nM | 0.957 | –
E13 [11], 37.037 nM | 0.849 | –
E13 [11], 111.1111111 nM | 1.68 | –
E13 [11], 333.333 nM | 3.33 | –
E13 [11], 1000 nM | 8.57 | –
E13 [11], 3000 nM | 12.1 | –
E21 [2], 4.11523 nM | – | 0.828
E21 [2], 12.34567901 nM | – | 0.855
E21 [2], 37.037 nM | – | 0.849
E21 [2], 111.1111111 nM | – | 0.728
E21 [2], 333.333 nM | – | 0.517
E21 [2], 1000 nM | – | 0.0242
E21 [2], 3000 nM | – | 0.00527
E21 [9], 4.11523 nM | 1.03 | –
E21 [9], 12.34567901 nM | 1.19 | –
E21 [9], 37.037 nM | 0.697 | –
E21 [9], 111.1111111 nM | 1.45 | –
E21 [9], 333.333 nM | 2.92 | –
E21 [9], 1000 nM | 11.2 | –
E21 [9], 3000 nM | 10.4 | –
E28 [6], 4.11523 nM | – | 1.06
E28 [6], 12.34567901 nM | – | 0.809
E28 [6], 37.037 nM | – | 0.932
E28 [6], 111.1111111 nM | – | 0.745
E28 [6], 333.333 nM | – | 0.566
E28 [6], 1000 nM | – | 0.0457
E28 [6], 3000 nM | – | 0.00486
E28 [13], 4.11523 nM | 0.371 | –
E28 [13], 12.34567901 nM | 0.758 | –
E28 [13], 37.037 nM | 0.541 | –
E28 [13], 111.1111111 nM | 0.984 | –
E28 [13], 333.333 nM | 1.97 | –
E28 [13], 1000 nM | 7.45 | –
E28 [13], 3000 nM | 19.2 | –
E31 [7], 4.11523 nM | – | 0.993
E31 [7], 12.34567901 nM | – | 0.809
E31 [7], 37.037 nM | – | 0.852
E31 [7], 111.1111111 nM | – | 0.608
E31 [7], 333.333 nM | – | 0.395
E31 [7], 1000 nM | – | 0.00296
E31 [7], 3000 nM | – | 0.00296
E31 [14], 4.11523 nM | 0.51 | –
E31 [14], 12.34567901 nM | 0.69 | –
E31 [14], 37.037 nM | 0.645 | –
E31 [14], 111.1111111 nM | 1.51 | –
E31 [14], 333.333 nM | 3.02 | –
E31 [14], 1000 nM | 11.5 | –
E31 [14], 3000 nM | 12.4 | –
E34 [5], 4.11523 nM | – | 0.907
E34 [5], 12.34567901 nM | – | 0.804
E34 [5], 37.037 nM | – | 0.719
E34 [5], 111.1111111 nM | – | 0.708
E34 [5], 333.333 nM | – | 0.568
E34 [5], 1000 nM | – | 0.223
E34 [5], 3000 nM | – | 0.00905
E34 [12], 4.11523 nM | 0.778 | –
E34 [12], 12.34567901 nM | 2.75 | –
E34 [12], 37.037 nM | 1.33 | –
E34 [12], 111.1111111 nM | 1.29 | –
E34 [12], 333.333 nM | 1.83 | –
E34 [12], 1000 nM | 6.7 | –
E34 [12], 3000 nM | 11.7 | –
E57 [1], 4.11523 nM | – | 0.876
E57 [1], 12.34567901 nM | – | 0.843
E57 [1], 37.037 nM | – | 0.926
E57 [1], 111.1111111 nM | – | 0.848
E57 [1], 333.333 nM | – | 0.631
E57 [1], 1000 nM | – | 0.166
E57 [1], 3000 nM | – | 0.0847
E57 [8], 4.11523 nM | 1.16 | –
E57 [8], 12.34567901 nM | 1.21 | –
E57 [8], 37.037 nM | 0.778 | –
E57 [8], 111.1111111 nM | 1.69 | –
E57 [8], 333.333 nM | 2.66 | –
E57 [8], 1000 nM | 6.04 | –
E57 [8], 3000 nM | 6.85 | –
FT3469 [3], 4.11523 nM | – | 0.815
FT3469 [3], 12.34567901 nM | – | 0.831
FT3469 [3], 37.037 nM | – | 0.86
FT3469 [3], 111.1111111 nM | – | 0.73
FT3469 [3], 333.333 nM | – | 0.627
FT3469 [3], 1000 nM | – | 0.263
FT3469 [3], 3000 nM | – | 0.0263
FT3469 [10], 4.11523 nM | 1.08 | –
FT3469 [10], 12.34567901 nM | 1.39 | –
FT3469 [10], 37.037 nM | 0.934 | –
FT3469 [10], 111.1111111 nM | 1.86 | –
FT3469 [10], 333.333 nM | 1.92 | –
FT3469 [10], 1000 nM | 8.18 | –
FT3469 [10], 3000 nM | 12.6 | –
